Read-outs that look alike come from different tables or passages of the source.
Columns and labels:
[1] = biological target: T1, mushroom tyrosinase (Agaricus bisporus, UniProt C7FF04); test: Mushroom tyrosinase activity inhibition assay (L-tyrosine or L-dopa as substrate); format: biochemical; conditions: mushroom tyrosinase, 37 °C, mean ± SEM of triplicates
T1 construct: purchased Sigma-Aldrich (St. Louis, MO, USA)
Description: 3.3. Tyrosinase Activity Assay Using Mushroom Tyrosinase
The tyrosinase inhibitory activity of the 2-phenylbenzoxazoles was evaluated using a mushroom tyrosinase activity assay, following a previously described method. An aqueous substrate mixture, consisting of phosphate buffer (pH 6.5; 17.2 mM) and L-tyrosine or L-dopa (345 μM), was prepared. A 96-well plate containing the test sample in dimethyl sulfoxide (DMSO) solution (10 μL), aqueous mushroom tyrosinase solution (20 μL; 200 units), and aqueous substrate mixture (170 μL) in each well was incubated at 37 °C for 15 min for L-dopa and 30 min for L-tyrosine, respectively.

[2] = ABTS radical cation scavenging assay; conditions: 100 μM
Description: For ABTS^+• scavenging experiments, ABTS^+• was generated by oxidizing ABTS using potassium persulfate. All test samples (Trolox [TR; positive material] and 1–15) were used at a final concentration of 100 μM. […] Both compounds share a common catechol structure. […] Similar results were obtained in the DPPH radical scavenging experiment. […] Compounds 4, 9, and 14, bearing a 4-hydroxy-3-methoxyphenyl, scavenged ABTS^+• moderately (23–51%).
3.15. 2,2′-Azino-bis(3-ethylbenzothiazoline-6-sulfonic Acid) (ABTS) Radical Cation Scavenging Assay
The effect of the 2-phenylbenzoxazole compounds 1–15 on radical scavenging was assessed using an ABTS assay, as previously reported. An ABTS aqueous solution (7 mM) was mixed with a K2S2O8 aqueous solution (2.45 mM) in equal volumes (each 20 mL) and incubated in the dark for 20 h at 25 °C to generate ABTS^+•. The ABTS^+• solution was then diluted with pure EtOH to adjust the absorbance of the solution to 0.7 ± 0.02 at 730 nm. The test samples (1–15 and Trolox [positive control]) were dissolved in a co-solvent of EtOH and DMSO (9:1, v/v) to make a 1 mM solution. The diluted ABTS^+• solution was mixed with the test sample solution at a volume ratio of 9:1 (90 μL:10 μL) and the mixture was stored for 2 min at 20 °C in the dark. The optical density was measured at 730 nm using an ELISA reader at 1 min intervals for 10 min. All test samples were used at a final concentration of 100 µM.
ABTS^+• radical scavenging activity (%) = [(ODcon − ODsam)/ODcon] × 100, where ODsam and ODcon represent the absorbances of the test sample and the control, respectively.

[3] = ROS scavenging assay (SIN-1/DCFH); conditions: 40 μM; SIN-1 10 μM; 30 min
Description: For ROS scavenging experiments, test samples (1–15 and Trolox [positive control]; 40 μM) containing 3-morpholinosydnonimine (SIN-1; 10 μM) were mixed with a 2′,7′-dichlorodihydrofluorescein (DCFH) solution. After 30 min, the ROS scavenging activity of the test samples was assessed.
3.16. Reactive Oxygen Species (ROS) Scavenging Assay
The ability of compounds 1–15 to remove ROS was assayed as previously reported. […] A 3-morpholinosydnonimine (SIN-1) solution (10 μL, 250 μM) and phosphate buffer (180 μL) were mixed with a test sample (1–15; 10 μL, 1 mM) in DMSO solution or Trolox (10 μL, 1 mM; positive control) in each well of a 96-well black plate and left in the dark 25 °C for 5 min. The SIN-1-test sample mixture was then combined with the generated DCFH solution (50 μL). Fluorescence was measured in 5 min intervals for 30 min at 530 nm using a microplate reader (Berthold Advances GmbH & Co., Bad Wildbad, Germany) with excitation at 485 nm.

[4] = DPPH radical scavenging assay; conditions: 500 μM, 30 min in the dark
Description: The DPPH radical scavenging activity was assessed by mixing DPPH solution with compounds 1–15 and incubating them in the dark for 30 min. All test samples were evaluated at 500 μM.
3.14. 2,2′-Diphenyl-1-picrylhydrazyl (DPPH) Radical Scavenging Assay
As previously reported, the ability of compounds 1–15 to remove DPPH radicals was evaluated. A 0.2 mM methanolic DPPH solution was mixed with a 5 mM L-ascorbic acid aqueous solution or 5 mM DMSO solution of 1–15 at a ratio of […] (v/v, 180 μL:20 μL) in each well of a 96-well microplate. After incubating the microplate in the dark for 30 min, the optical density of each well was measured at 517 nm using an ELISA reader. DPPH scavenging activity (%) = (OD[control] − OD[sample]) × 100/OD[control].

[5] = tested on: zebrafish larvae; test: Melanin content in zebrafish larvae; format: in vivo, zebrafish (Danio rerio); conditions: compound 8 0.025 mM; kojic acid 20 mM; treated 28 hpf, read 74 hpf
Description: (§1) . Zebrafish embryos obtained by natural mating were dechorionated at 24 hpf and treated with compound 8 (0.025 mM) or kojic acid (20 mM) at 28 hpf. After 46 h, the melanin content and tyrosinase activity were determined.
(§2) 3.13. Measurement of Melanin Content and Tyrosinase Activity in Zebrafish Larvae
(§3) The effects of the 2-phenylbenzo[d]oxazole compound 8 on the melanin content and tyrosinase activity in the zebrafish larvae were assessed using a previously defined procedure with minor modifications. To quantify the melanin content in the zebrafish larvae, zebrafish embryos were obtained through natural mating and operated in a similar manner to the in vivo depigmentation experiment (25 zebrafish embryos per well in a 24-well plate; dechorionation at 24 hpf; test sample treatment (8 [0.025 mM] and kojic acid [20 mM; positive control]) at 28 hpf). Melanin quantification and tyrosinase activity were quantified at 74 hpf. For melanin quantification, the zebrafish larvae were lysed in RIPA buffer (Biosesang, Gyeonggi-do, Korea) and homogenized using a sonicator. […] The absorbance was measured at 405 nm using a microplate reader. For the tyrosinase activity measurement, the supernatants were transferred to new Eppendorf tubes and the protein was quantified using a Pierce BCA protein assay kit, with the absorbance being measured at 570 nm using a microplate reader. […]

[6] = tested on: zebrafish larvae; test: In vivo depigmentation experiment using zebrafish embryos; conditions: kojic acid 20 mM; compound 8 0.025 mM; compound 13 0.025 and 0.05 mM; 76 hpf
Description: Zebrafish embryos were used in this study. […] The zebrafish embryos were obtained through natural mating in our laboratory. The chorion of the zebrafish embryos was removed 24 h post-fertilization (hpf).
In Vivo Depigmentation Experiment Using Zebrafish Embryos
A depigmentation experiment was performed using zebrafish embryos, as previously described [38, 49, 50]. Wild-type zebrafish (Danio rerio) were maintained in a fish tank at 28 °C and fed with dried brine shrimp (Artemia salina, San Francisco Bay Brand, San Francisco, CA, USA) three times daily. The zebrafish embryos were obtained through natural mating in mating cages. The obtained zebrafish embryos were transferred to a 90 mm culture dish containing 200 μL of E3-methylene blue (MB) solution, consisting of 0.001% MB, 0.17 mM KCl, 0.33 mM CaCl2, 0.33 mM MgSO4, and 5 mM NaCl, and incubated in an incubator set at 28 °C. At 24 h post-fertilization (hpf), the zebrafish embryos were dechorionated using pronase (Sigma-Aldrich, St. Louis, MO, USA). […] The 48-well plates were incubated in an incubator set at 28 °C for 48 h. At 76 hpf, the zebrafish larvae were mounted on a 1% methylcellulose block after anesthesia with tricaine methanesulfonate (Thermo Fisher Scientific, Waltham, MA, USA), and photographs of the zebrafish larvae were obtained using a SMZ745T stereoscopic microscope (Nikon, Tokyo, Japan). The pigmented areas of the zebrafish larvae were determined using the CS analyzer 3.0 image analysis software (ATTO, Tokyo, Japan).

[7] = tested on: B16F10 tyrosinase in situ; conditions: compounds 1, 2, 5 μM; kojic acid 5 μM; α-MSH + IBMX 72 h; excess L-dopa
Description: To evaluate the effect of the compounds on in situ tyrosinase activity, an experiment using B16F10 cells was performed as previously described [34, 35]. […] Excess L-dopa was added to increase their melanin production prior to the acquisition of cell images.
In Situ Tyrosinase Activity Assay Using B16F10 Cells and L-dopa
In situ tyrosinase activity was measured in B16F10 cells using L-dopa, as reported previously [34]. […] The cells were processed as follows: (1) fixing with 4% paraformaldehyde for 40 min, (2) washing with PBS, and (3) permeabilizing with 0.1% Triton X-100 for 2 min. After washing with PBS, the cells were stained with L-dopa (2 mM; 500 μL) at 37 °C for 2 h. Stained images were collected using a camera connected to a microscope (Motic, Hong Kong).

[8] = tested on: tyrosinase activity in zebrafish larvae; test: Tyrosinase activity in zebrafish larvae; format: in vivo, zebrafish (Danio rerio); conditions: compound 8 0.025 mM; kojic acid 20 mM; treated 28 hpf, read 74 hpf
Description: as §1, §2, §3

[9] = substrate L-dopa, 15 min, read-out: IC50 Values, L-Dopa
[10] = substrate L-tyrosine, 30 min, read-out: IC50 Values, L-Tyrosine

T1 sequence (C7FF04 1-392 limits assumed): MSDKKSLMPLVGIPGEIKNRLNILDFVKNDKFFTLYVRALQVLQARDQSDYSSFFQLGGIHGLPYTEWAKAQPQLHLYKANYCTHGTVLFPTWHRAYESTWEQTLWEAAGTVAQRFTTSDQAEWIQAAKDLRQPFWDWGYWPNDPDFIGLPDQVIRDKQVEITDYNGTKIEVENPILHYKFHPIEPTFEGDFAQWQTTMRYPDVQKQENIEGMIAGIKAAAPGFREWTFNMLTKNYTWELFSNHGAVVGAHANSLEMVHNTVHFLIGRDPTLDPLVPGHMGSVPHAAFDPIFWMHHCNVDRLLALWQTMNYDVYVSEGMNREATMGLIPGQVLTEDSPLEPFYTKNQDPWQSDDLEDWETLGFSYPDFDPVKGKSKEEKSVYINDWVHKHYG

| SMILES | IC50 [1, 9] | IC50 [1, 10] | ABTS+• scavenging activity (% inhibition) [2] | other results |
| --- | --- | --- | --- | --- |
| Cc1ccc2nc(-c3ccc(O)cc3)oc2c1 [Compound 1, 4-(6-Methylbenzo[d]oxazol-2-yl)phenol] | > 200 µM | 153 ± 14.3 µM |  |  |
| COc1ccc(-c2nc3ccc(C)cc3o2)c(OC)c1 [Compound 2, 2-(2,4-Dimethoxyphenyl)-6-methylbenzo[d]oxazole] | > 200 µM | > 200 µM | less than 5% |  |
| COc1ccc(-c2nc3ccc(C)cc3o2)cc1O [Compound 4, 2-Methoxy-5-(6-methylbenzo[d]oxazol-2-yl)phenol] | > 200 µM | > 200 µM |  |  |
| Cc1ccc2nc(-c3ccc(O)c(O)c3)oc2c1 [Compound 5, 4-(6-Methylbenzo[d]oxazol-2-yl)benzene-1,2-diol] | 187 ± 30.3 µM | 144 ± 3.1 µM | 13% | ROS scavenging activity [3]: strong ROS scavenging efficacy; DPPH radical scavenging activity (in words) [4]: weak DPPH radical scavenging effect |
| Oc1ccc(-c2nc3ccc(Cl)cc3o2)cc1 [Compound 6, 4-(6-Chlorobenzo[d]oxazol-2-yl)phenol] | > 200 µM | 57.5 ± 8.78 µM |  |  |
| COc1ccc(-c2nc3ccc(Cl)cc3o2)c(OC)c1 [Compound 7, 6-Chloro-2-(2,4-dimethoxyphenyl)benzo[d]oxazole] | > 200 µM | > 200 µM | less than 5% |  |
| COc1ccc(-c2nc3ccc(Cl)cc3o2)cc1O [Compound 9, 5-(6-Chlorobenzo[d]oxazol-2-yl)-2-methoxyphenol] | > 200 µM | > 200 µM |  |  |
| Oc1ccc(-c2nc3ccc(Cl)cc3o2)cc1O [Compound 10, 4-(6-Chlorobenzo[d]oxazol-2-yl)benzene-1,2-diol] | > 200 µM | 59 ± 4.74 µM | 81% | ROS scavenging activity [3]: strong to moderate ROS-scavenging activity; DPPH radical scavenging activity [4]: 86% |
| Cc1ccc2oc(-c3ccc(O)cc3)nc2c1 [Compound 11, 4-(5-Methylbenzo[d]oxazol-2-yl)phenol] | > 200 µM | 76.8 ± 3.84 µM |  |  |
| COc1ccc(-c2nc3cc(C)ccc3o2)c(OC)c1 [Compound 12, 2-(2,4-Dimethoxyphenyl)-5-methylbenzo[d]oxazole] | > 200 µM | > 200 µM | less than 5% |  |
| COc1ccc(-c2nc3cc(C)ccc3o2)cc1O [Compound 14, 2-Methoxy-5-(5-methylbenzo[d]oxazol-2-yl)phenol] | > 200 µM | 146 ± 16.4 µM |  |  |
| Cc1ccc2oc(-c3ccc(O)c(O)c3)nc2c1 [Compound 15, 4-(5-Methylbenzo[d]oxazol-2-yl)benzene-1,2-diol] | > 200 µM | 80.3 ± 5.24 µM | 83% | ROS scavenging activity [3]: strong ROS scavenging efficacy comparable to that of Trolox; DPPH radical scavenging activity [4]: 86% |
| O=C1O[C@H]([C@@H](O)CO)C(O)=C1O [L-ascorbic acid, reference compound] |  |  |  | DPPH radical scavenging activity [4]: 96% |
| Cc1c(C)c2c(c(C)c1O)CCC(C)(C(=O)O)O2 (centres unmarked) [Trolox, reference compound] |  |  | 99% | ROS scavenging activity [3]: most potent ROS scavenging activity |
| O=c1cc(CO)occ1O [kojic acid, Kojic acid, reference compound] |  |  |  | melanin content of zebrafish larvae, vs untreated control (100%) [5]: 53%; depigmentation effect on zebrafish larvae (photographs) [6]: reduced pigmentation in all regions except the eyes; pigmentation area of zebrafish larvae (CS analyzer) [6]: decreased the pigmentation area compared to the control; melanin formation, in situ tyrosinase activity in B16F10 cells [7]: markedly decreased melanin formation; % tyrosinase activity in zebrafish larvae, vs untreated control (100%) [8]: 57% |

Reference: PMC11396935, “Exploration of Compounds with 2-Phenylbenzo[d]oxazole Scaffold as Potential Skin-Lightening Agents through Inhibition of Melanin Biosynthesis and Tyrosinase Activity” (Molecules, 2024)
